Converted amounts (≈) assume the structure as drawn. The source made the active and inactive calls. The rule behind the calls is not given here.
Experiments:
MCF10 [1] = assay: Cytotoxicity against human MCF10 cells assessed as reduction of cellular protein content at 0.01 to 100 umol/L after 6 days by SRB assay; format: cell-based; conditions: mcf10, 144 h
[2] = Permeability across apical to basolateral side of human Caco2 cells assessed as compound recovery at 10 umol/L at pH 7.4; format: ADME, cell-based; conditions: Caco-2, pH 7.4, read-out: Drug recovery
[3] = Octanol-phosphate buffer partition coefficient, log D of the compound at 100 umol/L at pH 7.4; format: physicochemical
MDA-MB-231 [4] = assay: Cytotoxicity against human MDA-MB-231 cells expressing GFP-Luc assessed as reduction of cellular protein content at 0.01 to 100 umol/L after 6 days by SRB assay; format: cell-based; conditions: mda-mb-231, 144 h
[5] = Protein binding in human plasma assessed as recovery at 10 umol/L; format: ADME, cell-free; conditions: read-out: Drug recovery
[6] = Half life of the compound in PBS at pH 7.4 at 1 umol/L; format: ADME
MCF10 [7] = assay: Cytotoxicity against human MCF10 cells assessed as reduction of mitochondrial activity at 0.01 to 100 umol/L after 6 days by MTT assay; format: cell-based; conditions: mcf10, 144 h
Mus musculus [8] = assay: Toxicity in Swiss nu/nu mouse assessed as hematological anomalies by measuring WBC count at 1.6 mg/kg, ip administered three times a week for two-week period measured on day 15 (reference value: 2420 +/- 782 /microL); format: organism-based; conditions: in vivo
[9] = Intrinsic clearance in human liver S9 fraction at 0.1 umol/L; format: ADME, subcellular; conditions: read-out: CLH
[10] = Toxicity in human HepG2 cells assessed as cell viability; format: cell-based; conditions: HepG2 cells
MDA-MB-231 [11] = assay: Cytotoxicity against human MDA-MB-231 cells expressing GFP assessed as reduction of cellular protein content at 0.01 to 100 umol/L after 6 days by SRB assay; format: cell-based; conditions: mda-mb-231, 144 h
[12] = Intrinsic clearance in Sprague-Dawley rat liver microsomes at 0.1 umol/L; format: ADME; conditions: read-out: CLH
[13] = Antiinvasive activity in human in BLM cells assessed as reduction of amount of cells present on filter at 1 umol/L after 24 hrs by matrigel invasion assay (reference value: 100%); format: functional; design: scale not given: the % may be the effect or the level left
[14] = Aqueous solubility of the compound in PBS at pH 7.4 at 200 umol/L; format: physicochemical
[15] = Cytotoxicity against human MCF7/6 cells assessed as reduction of cellular protein content at 0.01 to 100 umol/L after 6 days by SRB assay; format: cell-based; conditions: mcf7/6, 144 h
MCF7/6 = assay: Antiinvasive activity in human MCF7/6 cells assessed as Cmin for progressive occupation of chicken precultured heart tissue fragments at 0.01 to 10 umol/L after 8 days by chick heart invasion assay; format: functional, cell-based
[16] = Aqueous solubility of the compound in simulated gastric fluid at 200 umol/L; format: physicochemical
[17] = Permeability across basolateral to apical side of human Caco2 cells assessed as compound recovery at 10 umol/L at pH 7.4; format: ADME, cell-based; conditions: Caco-2, pH 7.4, read-out: Drug recovery
Mus musculus [18] = assay: Toxicity in Swiss nu/nu mouse assessed as hematological anomalies by measuring WBC count at 16 mg/kg, ip administered three times a week for two-week period measured on day 15 (reference value: 2420 +/- 782 /microL); format: organism-based; conditions: in vivo
[19] = Toxicity in human HepG2 cells assessed as cell viability at 0.1 umol/L; format: cell-based; conditions: read-out: Activity
CYP2D6 = CYP2D6 (Homo sapiens, UniProt P10635); assay: Inhibition of CYP2D6 (unknown origin) at 10 umol/L; format: ADME
Mus musculus [20] = assay: Toxicity in Swiss nu/nu mouse assessed as hematological anomalies by measuring creatinine level at 1.6 mg/kg, ip administered three times a week for two-week period measured on day 15 (reference value: 0.29 +/- 0.02 mg/dL); format: organism-based; conditions: in vivo
[21] = Antiinvasive activity in human in BLM cells assessed as reduction of amount of cells present on filter at 10 umol/L after 24 hrs by matrigel invasion assay (reference value: 100%); format: functional; design: scale not given: the % may be the effect or the level left
[22] = Antiinvasive activity in human in BLM cells assessed as reduction of amount of cells present on filter at 0.1 umol/L after 24 hrs by matrigel invasion assay (reference value: 100%); format: functional; design: scale not given: the % may be the effect or the level left
hERG [23] = biological target: T1, hERG (Homo sapiens, UniProt Q12809); assay: Inhibition of human ERG assessed as reduction of tail current at 0.1 umol/L
Mus musculus [24] = assay: Toxicity in Swiss nu/nu mouse assessed as macroscopic anomalies at 1.6 to 160 mg/kg, ip administered three times a week for two-week period measured on day 15; format: organism-based; conditions: in vivo
SK-OV-3 [25] = assay: Antiinvasive activity in human in SKOV3 cells assessed as reduction of amount of cells present on filter at 10 umol/L after 24 hrs by matrigel invasion assay (reference value: 100%); format: functional; design: scale not given: the % may be the effect or the level left
hERG [26] = biological target: T1, hERG; assay: Inhibition of human ERG assessed as reduction of tail current at 1 umol/L
[27] = Toxicity in human HepG2 cells assessed as cell viability at 10 umol/L; format: cell-based; conditions: read-out: Activity
[28] = Permeability across basolateral to apical side of human Caco2 cells at 10 umol/L at pH 7.4; format: ADME, cell-based; conditions: Caco-2, pH 7.4, read-out: permeability
Mus musculus [29] = assay: Toxicity in Swiss nu/nu mouse assessed as hematological anomalies by measuring AST level at 1.6 mg/kg, ip administered three times a week for two-week period measured on day 15 (reference value: 254.2 +/- 144.6 IU/L); format: organism-based; conditions: in vivo
[30] = Antiinvasive activity in human in BLM cells assessed as reduction of amount of cells present on filter at 100 umol/L after 24 hrs by matrigel invasion assay (reference value: 100%); format: functional; design: scale not given: the % may be the effect or the level left
Tubulin (Sus scrofa) = Tubulin (Sus scrofa) (UniProt P02554+P02550); assay: Inhibition of porcine brain tubulin polymerization assessed as microtubule assembly at 1 umol/L after 15 mins by DAPI staining
Mus musculus [31] = assay: Toxicity in Swiss nu/nu mouse assessed as hematological anomalies by measuring ALT level at 1.6 mg/kg, ip administered three times a week for two-week period measured on day 15 (reference value: 29.6 +/- 5.6 IU/L); format: organism-based; conditions: in vivo
Mus musculus [32] = assay: Toxicity in Swiss nu/nu mouse assessed as histological anomalies in liver at 1.6 to 160 mg/kg, ip administered three times a week for two-week period measured on day 15; format: organism-based; conditions: in vivo
Mus musculus [33] = assay: Toxicity in Swiss nu/nu mouse assessed as hematological anomalies by measuring WBC count at 160 mg/kg, ip administered three times a week for two-week period measured on day 15 (reference value: 2420 +/- 782 /microL); format: organism-based; conditions: in vivo
SK-OV-3 [34] = assay: Antiinvasive activity in human in SKOV3 cells assessed as reduction of amount of cells present on filter at 1 umol/L after 24 hrs by matrigel invasion assay (reference value: 100%); format: functional; design: scale not given: the % may be the effect or the level left
MDA-MB-231 [35] = assay: Cytotoxicity against human MDA-MB-231 cells expressing GFP-Luc assessed as reduction of mitochondrial activity at 0.01 to 100 umol/L after 6 days by MTT assay; format: cell-based; conditions: mda-mb-231, 144 h
Mus musculus [36] = assay: Toxicity in Swiss nu/nu mouse assessed as hematological anomalies by measuring ALT level at 16 mg/kg, ip administered three times a week for two-week period measured on day 15 (reference value: 29.6 +/- 5.6 IU/L); format: organism-based; conditions: in vivo

T1 sequence (Q12809 whole entry): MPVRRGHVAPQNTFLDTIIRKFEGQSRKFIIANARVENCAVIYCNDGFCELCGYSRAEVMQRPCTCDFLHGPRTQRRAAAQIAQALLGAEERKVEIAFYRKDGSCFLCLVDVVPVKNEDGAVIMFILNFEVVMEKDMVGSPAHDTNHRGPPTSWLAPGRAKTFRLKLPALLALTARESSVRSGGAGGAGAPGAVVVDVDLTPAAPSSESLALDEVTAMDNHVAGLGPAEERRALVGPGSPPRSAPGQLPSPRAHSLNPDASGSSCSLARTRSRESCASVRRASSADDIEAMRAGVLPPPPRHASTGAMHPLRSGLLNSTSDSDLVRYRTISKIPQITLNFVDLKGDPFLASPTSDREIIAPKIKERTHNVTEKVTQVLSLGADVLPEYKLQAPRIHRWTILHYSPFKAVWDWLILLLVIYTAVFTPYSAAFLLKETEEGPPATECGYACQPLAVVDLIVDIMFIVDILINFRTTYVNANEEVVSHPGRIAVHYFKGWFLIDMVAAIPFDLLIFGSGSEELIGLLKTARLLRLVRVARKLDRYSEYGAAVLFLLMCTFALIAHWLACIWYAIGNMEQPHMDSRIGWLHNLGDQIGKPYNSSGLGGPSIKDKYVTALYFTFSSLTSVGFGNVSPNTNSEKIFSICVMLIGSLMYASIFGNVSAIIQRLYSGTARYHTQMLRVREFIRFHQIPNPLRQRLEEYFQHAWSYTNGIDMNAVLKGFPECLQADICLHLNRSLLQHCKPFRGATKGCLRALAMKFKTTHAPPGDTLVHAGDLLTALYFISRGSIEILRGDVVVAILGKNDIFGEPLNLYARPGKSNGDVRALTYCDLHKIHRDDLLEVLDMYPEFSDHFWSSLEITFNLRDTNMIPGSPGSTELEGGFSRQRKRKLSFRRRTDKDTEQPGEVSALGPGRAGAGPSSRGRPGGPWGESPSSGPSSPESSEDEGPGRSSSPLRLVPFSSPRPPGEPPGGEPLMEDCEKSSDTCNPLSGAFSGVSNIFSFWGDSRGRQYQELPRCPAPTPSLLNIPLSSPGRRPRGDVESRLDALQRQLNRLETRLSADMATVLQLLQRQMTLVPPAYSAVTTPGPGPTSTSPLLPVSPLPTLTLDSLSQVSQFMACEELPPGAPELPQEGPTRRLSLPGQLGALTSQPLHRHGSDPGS
CYP2D6, sequence (P10635 whole entry): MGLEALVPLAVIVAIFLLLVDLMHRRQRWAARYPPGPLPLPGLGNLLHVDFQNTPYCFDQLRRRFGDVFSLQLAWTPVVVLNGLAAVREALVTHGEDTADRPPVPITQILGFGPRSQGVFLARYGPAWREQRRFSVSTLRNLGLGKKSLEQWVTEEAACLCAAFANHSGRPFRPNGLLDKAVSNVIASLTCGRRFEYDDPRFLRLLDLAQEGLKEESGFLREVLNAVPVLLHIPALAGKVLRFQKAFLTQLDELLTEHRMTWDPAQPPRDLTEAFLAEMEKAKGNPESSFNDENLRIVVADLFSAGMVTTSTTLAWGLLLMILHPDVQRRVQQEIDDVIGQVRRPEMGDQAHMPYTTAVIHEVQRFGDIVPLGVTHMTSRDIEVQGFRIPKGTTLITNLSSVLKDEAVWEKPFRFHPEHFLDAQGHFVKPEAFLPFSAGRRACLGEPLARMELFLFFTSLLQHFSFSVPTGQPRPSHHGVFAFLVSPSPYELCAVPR
Tubulin (Sus scrofa), sequence (P02550 whole entry, looked up): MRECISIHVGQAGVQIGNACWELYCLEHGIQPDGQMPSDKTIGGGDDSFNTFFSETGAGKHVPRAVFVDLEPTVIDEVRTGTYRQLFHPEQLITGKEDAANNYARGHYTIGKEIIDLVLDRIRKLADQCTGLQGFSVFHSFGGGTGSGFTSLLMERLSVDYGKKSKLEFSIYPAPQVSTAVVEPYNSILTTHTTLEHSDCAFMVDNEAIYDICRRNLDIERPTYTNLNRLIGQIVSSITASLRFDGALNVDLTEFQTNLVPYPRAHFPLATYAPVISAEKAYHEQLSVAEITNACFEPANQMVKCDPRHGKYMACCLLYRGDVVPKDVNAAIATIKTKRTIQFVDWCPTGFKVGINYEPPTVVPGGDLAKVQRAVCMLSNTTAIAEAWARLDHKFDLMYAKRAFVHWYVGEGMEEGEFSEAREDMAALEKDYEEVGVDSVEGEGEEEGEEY
Tubulin (Sus scrofa), sequence (P02554 whole entry, looked up): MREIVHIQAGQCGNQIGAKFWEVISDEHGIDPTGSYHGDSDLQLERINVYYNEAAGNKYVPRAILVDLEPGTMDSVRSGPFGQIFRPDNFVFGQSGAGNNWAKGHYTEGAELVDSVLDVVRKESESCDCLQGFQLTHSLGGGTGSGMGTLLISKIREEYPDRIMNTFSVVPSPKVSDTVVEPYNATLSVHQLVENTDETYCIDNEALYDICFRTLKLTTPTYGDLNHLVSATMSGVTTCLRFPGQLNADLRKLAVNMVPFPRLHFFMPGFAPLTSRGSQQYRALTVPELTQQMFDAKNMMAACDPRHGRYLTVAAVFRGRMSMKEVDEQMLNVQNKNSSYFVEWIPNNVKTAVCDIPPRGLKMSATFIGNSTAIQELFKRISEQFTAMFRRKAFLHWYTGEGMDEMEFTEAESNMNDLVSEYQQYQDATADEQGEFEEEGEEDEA

Q: Which Activity (MCF10 [1]) does the source give for `COc1cc(C(=O)/C=C/c2ccc(F)cc2)cc(OC)c1OC` here?
A: Non-toxic

Q: What about the recovery at 10 µM [2] of the same compound?
A: 17%

Q: And the logD at 100 µM [3]?
A: 3.85

Q: What about the Activity (MDA-MB-231 [4]) of the same compound?
A: Non-toxic

Q: And the recovery at 10 µM [5]?
A: 90%

Q: What about the half-life at 1 µM [6] of the same compound?
A: > 4 h

Q: And the Activity (MCF10 [7])?
A: Non-toxic

Q: And the Activity (Mus musculus [8])?
A: 4400 µL⁻¹

Q: And the microsomal CLint at 0.1 µM [9]?
A: 57.3 µL/min/mg

Q: What about the EC50 [10] of the same compound?
A: 10 µM

Q: What about the Activity (MDA-MB-231 [11]) of the same compound?
A: Non-toxic

Q: And the microsomal CLint at 0.1 µM [12]?
A: 339 µL/min/mg

Q: And the Activity [13]?
A: 33%

Q: What about the solubility at 200 µM [14] of the same compound?
A: 2.4 µM (≈ 0.759 µg/mL)

Q: What about the Activity [15] of the same compound?
A: Non-toxic

Q: And the Activity (MCF7/6)?
A: Active

Q: What about the solubility at 200 µM [16] of the same compound?
A: 9.1 µM (≈ 2.88 µg/mL)

Q: What about the recovery at 10 µM [17] of the same compound?
A: 66%

Q: What about the Activity (Mus musculus [18]) of the same compound?
A: 5960 µL⁻¹

Q: What about the viability at 0.1 µM [19] of the same compound?
A: 93.7%

Q: What about the inhibition at 10 µM (CYP2D6) of the same compound?
A: 18.9%

Q: And the Activity (Mus musculus [20])?
A: 0.22 mg/dL

Q: And the Activity [21]?
A: 7%

Q: And the Activity [22]?
A: 20%

Q: What about the inhibition at 0.1 µM (hERG [23]) of the same compound?
A: 3.7%

Q: And the Activity (Mus musculus [24])?
A: Non-toxic

Q: And the Activity (SK-OV-3 [25])?
A: 12%

Q: And the inhibition at 1 µM (hERG [26])?
A: 9.8%

Q: What about the viability at 10 µM [27] of the same compound?
A: 44.3%

Q: What about the Papp B→A at 10 µM [28] of the same compound?
A: 4.9 ×10⁻⁶ cm/s

Q: And the Activity (Mus musculus [29])?
A: 135.5 IU/L

Q: And the Activity [30]?
A: 2%

Q: What about the inhibition (Tubulin (Sus scrofa)) of the same compound?
A: -0.8%

Q: What about the Activity (Mus musculus [31]) of the same compound?
A: 30.5 IU/L

Q: And the Activity (Mus musculus [32])?
A: Non-toxic

Q: What about the Activity (Mus musculus [33]) of the same compound?
A: 3180 µL⁻¹

Q: And the Activity (SK-OV-3 [34])?
A: 18%

Q: And the Activity (MDA-MB-231 [35])?
A: Non-toxic

Q: What about the Activity (Mus musculus [36]) of the same compound?
A: 28.1 IU/L
